From patent publication US8822449B2, “Substituted aminoindanes and analogs thereof, and the pharmaceutical use thereof” (Sanofi, priority 2008, dated 2014)

Target: T1, sodium-proton exchanger of subtype 3 (NHE3) (Homo sapiens, UniProt P48764)
T1 construct: expressed in transfected cells
T1 sequence (P48764 26-834): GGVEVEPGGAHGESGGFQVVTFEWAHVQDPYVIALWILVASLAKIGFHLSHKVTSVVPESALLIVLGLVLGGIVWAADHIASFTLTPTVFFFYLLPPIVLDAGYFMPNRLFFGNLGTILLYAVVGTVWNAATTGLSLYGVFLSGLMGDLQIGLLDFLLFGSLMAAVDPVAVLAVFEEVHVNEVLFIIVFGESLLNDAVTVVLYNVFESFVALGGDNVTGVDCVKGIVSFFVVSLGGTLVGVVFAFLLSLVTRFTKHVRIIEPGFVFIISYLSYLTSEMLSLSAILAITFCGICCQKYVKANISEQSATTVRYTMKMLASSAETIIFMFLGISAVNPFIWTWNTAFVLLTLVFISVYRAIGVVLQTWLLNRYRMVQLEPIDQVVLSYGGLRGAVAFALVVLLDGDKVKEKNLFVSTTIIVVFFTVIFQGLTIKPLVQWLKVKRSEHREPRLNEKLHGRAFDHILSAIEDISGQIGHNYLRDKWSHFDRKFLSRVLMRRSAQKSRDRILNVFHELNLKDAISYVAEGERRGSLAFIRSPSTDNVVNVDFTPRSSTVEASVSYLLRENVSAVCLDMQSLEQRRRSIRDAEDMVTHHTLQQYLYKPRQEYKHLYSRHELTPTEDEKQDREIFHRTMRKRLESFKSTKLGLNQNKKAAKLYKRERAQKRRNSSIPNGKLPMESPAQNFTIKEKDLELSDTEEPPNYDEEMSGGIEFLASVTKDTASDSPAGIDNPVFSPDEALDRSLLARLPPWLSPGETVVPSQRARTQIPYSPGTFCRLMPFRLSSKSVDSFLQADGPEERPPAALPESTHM
Test: Recovery of intracellular pH (pHi) after acidification in LAP1 cells stably expressing NHE3 (BCECF fluorescence, FLIPR)
Format: cell-based
Conditions: LAP1 cells stably expressing NHE3; pH recovery after acidification; range 1 is % inhibition at 10 μM; read-out: Activity range (inhibitory effect on NHE3)

SMILES | inhibition at 10 µM [%] | IC50 [nM]
N[C@@H]1CCCN([C@H]2CCc3ccccc3[C@@H]2Oc2ccnc(Cl)c2)C1 (racemic) [Example 40, (R)-1-[rac-trans-(1,2)-1-(2-chloropyridin-4-yloxy)-1,2,3,4-tetrahydronaphthalen-2-yl]piperidin-3-ylamine] | 20 to 50 | 
N[C@H]1CCCN([C@H]2CCc3ccccc3[C@@H]2Oc2ccc(-n3cncn3)cc2)C1 (racemic) [Example 171, (S)-1-[rac-trans-(1,2)-1-(4-[1,2,4]triazol-1-ylphenoxy)-1,2,3,4-tetrahydronaphthalen-2-yl]piperidin-3-ylamine] |  | 1000 to 10000
CS(=O)(=O)c1ccc(O[C@H]2c3ccccc3C[C@@H]2NC2CCCC2)cc1 (racemic) [Example 623, Cyclopentyl-[1-(4-methanesulfonylphenoxy)indan-2-yl]amine] |  | 1000 to 10000
N#Cc1ccc(O[C@H]2c3ccccc3CC[C@@H]2N2CCC[C@@H](N)C2)cc1 (racemic) [Example 516, 4-[rac-trans-(1,2)-2-((R)-3-aminopiperidin-1-yl)-1,2,3,4-tetrahydronaphthalen-1-yloxy]benzonitrile] |  | < 1000
N#Cc1ccc(O[C@@H]2c3ccccc3C[C@H]2N2CCC[C@@H](N)C2)cc1F (racemic) [Example 522, 4-[rac-trans-(1,2)-2-((R)-3-aminopiperidin-1-yl)indan-1-yloxy]-2-fluorobenzonitrile] |  | 1000 to 10000
O=C1CSC(=O)N1c1ccc(O[C@H]2c3cc(Cl)cc(Cl)c3C[C@@H]2N2CC[C@@H](O)C2)cc1 [Example 428, 3-{4-[(1S,2S)-4,6-dichloro-2-((R)-3-hydroxypyrrolidin-1-yl)indan-1-yloxy]phenyl}thiazolidine-2,4-dione] |  | < 1000
NC(=O)c1cc(Cl)ccc1O[C@H]1c2ccccc2CC[C@@H]1N1CCC[C@@H](N)C1 (racemic) [Example 365, 2-[rac-trans-(1,2)-2-((R)-3-aminopiperidin-1-yl)-1,2,3,4-tetrahydronaphthalen-1-yloxy]-5-chlorobenzamide] |  | 1000 to 10000
N[C@@H]1CCCN([C@H]2CCc3ccccc3[C@@H]2Oc2ccc(-n3ccnc3)cc2)C1 (racemic) [Example 71, (R)-1-[rac-trans-(1,2)-1-(4-imidazol-1-ylphenoxy)-1,2,3,4-tetrahydronaphthalen-2-yl]piperidin-3-ylamine] |  | 1000 to 10000
NC(=O)c1cccc(O[C@@H]2c3ccccc3C[C@H]2N2CCC(N)C2)c1 (mixture of isomers) [Example 415, 3-[rac-trans-(1,2)-2-(3-aminopyrrolidin-1-yl)indan-1-yloxy]benzamide] |  | 1000 to 10000
N#Cc1ccc(O[C@@H]2c3ccccc3C[C@H]2N2CCC[C@@H](N)C2)cc1Cl (racemic) [Example 521, 4-[rac-trans-(1,2)-2-((R)-3-aminopiperidin-1-yl)indan-1-yloxy]-2-chlorobenzonitrile] |  | 1000 to 10000
O=C1CCCN1c1ccc(Cl)c(O[C@H]2c3cc(Cl)cc(F)c3C[C@@H]2N2CC[C@@H](O)C2)c1 [Example 341, 1-{4-chloro-3-[(1S,2S)-6-chloro-4-fluoro-2-((R)-3-hydroxypyrrolidin-1-yl)indan-1-yloxy]phenyl}pyrrolidin-2-one] |  | < 1000
CS(=O)(=O)c1ccc(O[C@H]2c3ccccc3C[C@@H]2N2CCNCC2)cc1 (racemic) [Example 272, 1-[rac-trans-(1,2)-1-(4-methanesulfonylphenoxy)indan-2-yl]piperazine] |  | 1000 to 10000
Nc1ccc2c(O[C@H]3c4ccccc4CC[C@@H]3N3CCC[C@H](N)C3)cccc2c1 (racemic) [Example 189, (S)-1-[rac-trans-(1,2)-1-(6-aminonaphthalen-1-yloxy)-1,2,3,4-tetrahydronaphthalen-2-yl]piperidin-3-ylamine] |  | 1000 to 10000
CN(C)[C@H]1Cc2c(Cl)cc(Cl)cc2[C@@H]1Oc1ccc(-n2ccnc2)cc1 (racemic) [Example 216, [rac-trans-(1,2)-4,6-dichloro-1-(4-imidazol-1-ylphenoxy)indan-2-yl]dimethylamine] | 20 to 50 | 
CS(=O)(=O)c1ccc(O[C@H]2c3cc(Cl)cc(Cl)c3C[C@@H]2N2CCC[C@@H](NCC#N)C2)cc1 [Example 225, {(R)-1-[trans-(1S,2S)-4,6-dichloro-1-(4-methanesulfonylphenoxy)indan-2-yl]piperidin-3-ylamino}acetonitrile] |  | < 1000
NCC1CCN([C@@H]2Cc3ccccc3[C@H]2Oc2cccc(NC(N)=O)c2)C1 (mixture of isomers) [Example 233, {3-[rac-trans-(1,2)-2-(3-aminomethylpyrrolidin-1-yl)indan-1-yloxy]phenyl}urea] |  | 1000 to 10000
CS(=O)(=O)c1ccc(O[C@H]2c3ccccc3CC[C@@H]2N2CCOCC2)cc1 (racemic) [Example 508, 4-[rac-trans-(1,2)-1-(4-methanesulfonylphenoxy)-1,2,3,4-tetrahydronaphthalen-2-yl]morpholine] | 20 to 50 | 
NS(=O)(=O)c1ccc(OC2c3ccccc3CC2N2CC[C@@H](N3CCCC3)C2)cc1 (mixture of isomers) [Example 463, 4-(rac-trans-(1,2)-(R)-2-[1,3′]Bipyrrolidinyl-1′-ylindan-1-yloxy)benzenesulfonamide] |  | 1000 to 10000
Cc1c(Cl)cccc1O[C@@H]1c2ccccc2C[C@H]1N1C[C@H]2CNC[C@H]2C1 (racemic) [Example 6, 2-[rac-trans-(1,2)-1-(3-chloro-2-methylphenoxy)indan-2-yl]octahydropyrrolo[3,4-c]pyrrole] |  | 1000 to 10000
Cc1noc(C)c1-c1cc(F)ccc1O[C@H]1c2ccccc2C[C@@H]1N1CCCC1 [Example 503, 4-[5-fluoro-2-(trans-(1S,2S)-2-pyrrolidin-1-ylindan-1-yloxy)phenyl]-3,5-dimethylisoxazole] | 20 to 50 | 
Cc1nnc(C)n1-c1ccc(O[C@H]2c3ccccc3C[C@@H]2N2CCCC2)c(Cl)c1 (racemic) [Example 490, 4-[3-chloro-4-(rac-trans-(1,2)-2-pyrrolidin-1-ylindan-1-yloxy)phenyl]-3,5-dimethyl-4H-[1,2,4]triazole] |  | < 1000
NS(=O)(=O)c1ccc(O[C@@H]2c3ccccc3C[C@H]2NC2CCCC2)c(F)c1 (racemic) [Example 460, 4-(2-cyclopentylaminoindan-1-yloxy)-3-fluorobenzenesulfonamide] |  | < 1000
NC(=O)c1cccc(O[C@H]2c3ccccc3CC[C@@H]2N2CCC[C@H](N)C2)c1 (racemic) [Example 412, 3-[rac-trans-(1,2)-2-((S)-3-aminopiperidin-1-yl)-1,2,3,4-tetrahydronaphthalen-1-yloxy]benzamide] | 20 to 50 | 
CN(C)CCN(C)[C@H]1Cc2c(Cl)cc(Cl)cc2[C@@H]1Oc1ccc(S(C)(=O)=O)cc1 [Example 671, N-[trans-(1S,2S)-4,6-dichloro-1-(4-methanesulfonylphenoxy)indan-2-yl]-N,N′,N′-trimethyl-ethane-1,2-diamine] |  | < 1000
N[C@@H]1CCCN([C@H]2CCc3ccccc3[C@@H]2Oc2ccc(F)c(Cl)c2)C1 (racemic) [Example 52, (R)-1-[rac-trans-(1,2)-1-(3-chloro-4-fluorophenoxy)-1,2,3,4-tetrahydronaphthalen-2-yl]piperidin-3-ylamine] | 20 to 50 | 
COCCN(C)[C@H]1Cc2c(Cl)cc(Cl)cc2[C@@H]1Oc1ccc(S(C)(=O)=O)cc1 [Example 218, [trans-(1S,2S)-4,6-dichloro-1-(4-methanesulfonylphenoxy)indan-2-yl]-(2-methoxyethyl)-methylamine] | 20 to 50 | 
